Consider 30 compounds from US20090093517A1, “BIS1,2,3,4-TETRAHYDROISOQUINOLINE DERIVATIVES AND THEIR USES AS PHARMACEUTICALS” (UNIVERSITE DE LIEGE, priority 2006, published 2009).

One may read the Ki as a measure of affinity in units of concentration, obtained from inhibition or displacement. Lower therefore signals higher affinity.

Counter-ions that a name gives are not always drawn.

This experiment has as its target apamin-sensitive sites of the SK channels. Briefly: Competition binding between 125I-apamin and bis-tetrahydroisoquinoline derivatives on rat cortical synaptosomes. The following applies: for Ki / potential to interact with apamin-sensitive sites compared with NML: comparison in words with N-Methyl-Laudanosine; for Ki: separated stereoisomers, rat cortical apamin sensitive sites, 125I-apamin; for % of 125I-apamin displaced at 10 μM: 10 μM compound, ±10 pM 125I-apamin, rat cortical synaptosomes, 1 h at 0° C. How it is done: These experiments are used to evaluate the potency of the bis-tetrahydroisoquinoline derivatives to interact with the apamin-sensitive sites of the SK channels, the selected target for which a blockade is expected to be useful in the treatment of Alzheimer's disease, Parkinson's disease, schizophrenia, cognitive dysfunction, or depression. Two reference compounds are also tested for comparison
Rats (male Wistar, ±250 g) were killed by decapitation and the brains were quickly removed and kept on ice during dissection. Crude cortex was dispersed in 0.32 M sucrose by using a Pottero homogenizer. After a first centrifugation at 1500×g for 10 min, the supernatant was centrifuged at 25000×g for 10 min. The resulting pellet was dispersed in 5 mL 0.32 M sucrose to be aliquoted. Protein concentration was determined by the method of Hartree with bovine serum albumin as a standard.^36
The buffer consisted of a 10 mM Tris-HCl (pH 7.5) solution containing 5.4 mM KCl and 0.1% bovine serum albumin. The radioligand was ^125I-apamin (Perkin-Elmer, Specific activity 81.4 TBq mmol^−1). Glass fibre filters (Whatman GF/C) used in these experiments were coated for 1 h in 0.5% polyethylenimine and then washed with 2.5 mL of the ice-cold buffer just before use. Binding experiments were always terminated as follows. Aliquots were filtered under reduced pressure through Whatman filters. Filters were rapidly washed twice with 2.5 mL of buffer. The radioactivity remaining on the filter was evaluated with a Packard Tri-Carb 1600TR liquid scintillation analyser with an efficacy of 69%. ^125I-apamin binding to the filters was also estimated in the absence of synaptosomes. This binding was also substracted from the total binding. Curve fitting was carried out using GraphPad Prism.
Saturation Binding Experiments—Synaptosomes (0.2 mg of protein/mL) were incubated with increasing concentrations of ^125I-apamin (25 μL) with 975 μL of incubation buffer for 1 h at 0° C. Samples were then filtered on Whatman GF/C filter and the radioactivity was measured as described above. Non specific binding was determined in parallel experiments in the presence of an excess of unlabeled apamin (0.1 μM) and subtracted from the total binding to obtain the specific binding.
Competition Experiments between ^125I-apamin and Bis-tetrahydroisoquinoline derivatives—Synaptosomes (0.2 mg of protein/mL) were incubated for 1 h at 0° C. with ±10 pM of ^125I-apamin (25 μL) and nine concentrations of bis-tetrahydroisoquinoline derivatives (10^−4 to 10^−7 M). Non specific binding was determined in the presence of an excess of unlabeled apamin (0.1 μM). Samples were then filtered on Whatman filter and the radioactivity was measured as described above.

`COc1cc2c(cc1OC)C(CCCCCC1c3cc(OC)c(OC)cc3CCN1C)N(C)CC2.Cl` (stereo not shown) [Compound 4f E1, 1,5-bis[1-(6,7-dimethoxy-2-methyl-1,2,3,4-tetrahydroisoquinolyl)]-pentane hydrochloride]: the “Ki / potential to interact with apamin-sensitive sites compared with NML” value (shortened to “Ki / potential to interact … compared with NML”) was “Ki superior to NML”. In addition, the affinity (listed as 4f E1, hydrochloride), expressed as Ki, was 0.592 ± 0.014 µM.
In the case of `COc1cc2c(cc1OC)C(CCCCC1c3cc(OC)c(OC)cc3CCN1C)N(C)CC2` (stereo not shown) [Compound 4e E2, 1,4-bis[1-(6,7-dimethoxy-2-methyl-1,2,3,4-tetrahydroisoquinolyl)]-butane hydrochloride], affinity (listed as 4e E2, hydrochloride) was put at a Ki of 1.2 ± 0.114 µM.
For `COc1cc2c(cc1OC)[C@@H](Cc1ccc(C[C@H]3c4cc(OC)c(OC)cc4CCN3C)cc1)N(C)CC2` [Compound 4n MESO], the Ki was 0.566 ± 0.026 µM.
Turning to `COc1cc2c(c(OC)c1OC)C(CCCCC1c3c(cc(OC)c(OC)c3OC)CCN1C)N(C)CC2.Cl` (stereo not drawn) [Compound 4h MESO, 1,4-bis[1-(6,7,8-trimethoxy-2-methyl-1,2,3,4-tetrahydroisoquinolyl)]-butane hydrochloride], the “Ki / potential to interact … compared with NML” value was “Ki superior to NML”. Moreover, for the setting “listed as 4h MESO, hydrochloride”, the Ki came to 0.424 ± 0.033 µM.
In turn, `COc1cc2c(cc1OC)C(CCCCCC1c3cc(OC)c(OC)cc3CCN1C)N(C)CC2` (stereo not shown) [Compound 4f E2, 1,5-bis[1-(6,7-dimethoxy-2-methyl-1,2,3,4-tetrahydroisoquinolyl)]-pentane hydrochloride] yielded a Ki (listed as 4f E2, hydrochloride) of 1.3 ± 0.039 µM.
`COc1cc2c(cc1OC)C(CCCC1c3cc(OC)c(OC)cc3CCN1C)N(C)CC2` (stereo not shown) [Compound 4d E2, 1,3-bis[1-(6,7-dimethoxy-2-methyl-1,2,3,4-tetrahydroisoquinolyl)]-propane hydrochloride] gave a Ki (listed as 4d E2, hydrochloride) of 1.89 ± 0.105 µM.
Take `Cc1cc(N)c2ccccc2[n+]1CCCCCCCCCC[n+]1c(C)cc(N)c2ccccc21` [DQ+, Dequalinium, reference compound]: affinity was put at a Ki of 0.221 ± 0.011 µM.
For the setting “listed as 4n E2”, `COc1cc2c(cc1OC)C(Cc1ccc(CC3c4cc(OC)c(OC)cc4CCN3C)cc1)N(C)CC2` (stereo not shown) [Compound 4n E2] returned a Ki of 1.12 ± 0.046 µM.
Turning to `COc1cc2c(cc1OC)C(Cc1ccc(CC3c4cc(OC)c(OC)cc4CCN3C)cc1)N(C)CC2` (stereo not shown) [Compound 4n E1], where the note is “listed as 4n E1”, the Ki came to 1.01 ± 0.144 µM.
For `COc1cc2c(cc1OC)C(CCCCC1c3cc(OC)c(OC)cc3CCN1C)N(C)CC2.Cl` (stereo not shown) [Compound 4e, 1,4-bis[1-(6,7-dimethoxy-2-methyl-1,2,3,4-tetrahydroisoquinolyl)]-butane hydrochloride], the “% of 125I-apamin displaced at 10 μM” value came to 72%.
Regarding `COc1cc2c(cc1OC)C(Cc1cccc(CC3c4cc(OC)c(OC)cc4CCN3C)c1)N(C)CC2` (stereo not shown) [Compound 4m E1], the Ki (listed as 4m E1) was 1.28 ± 0.055 µM.
As to `COc1cc2c(cc1OC)C(Cc1cccc(CC3c4cc(OC)c(OC)cc4CCN3C)c1)N(C)CC2` (stereo not shown) [Compound 4m E2], the affinity (listed as 4m E2), expressed as Ki, was 1.02 ± 0.027 µM.
As to `COc1cc2c(c(OC)c1OC)C(CCCCC1c3c(cc(OC)c(OC)c3OC)CCN1C)N(C)CC2.Cl` (stereo not shown) [Compound 4h, 1,4-bis[1-(6,7,8-trimethoxy-2-methyl-1,2,3,4-tetrahydroisoquinolyl)]-butane hydrochloride], the “% of 125I-apamin displaced at 10 μM” value is listed as 86%.
The same measure, in the same setting: for `CN1CCc2ccccc2C1CCCCC1c2ccccc2CCN1C.Cl` (stereo not shown) [Compound 4b, 1,4-bis[1-(2-methyl-1,2,3,4-tetrahydroisoquinolyl)]-butane hydrochloride] the value was 16%; for `CN1CCc2ccccc2C1CCCCCC1c2ccccc2CCN1C.Cl` (stereo not shown) [Compound 4c, 1,5-bis[1-(2-methyl-1,2,3,4-tetrahydroisoquinolyl)]-pentane hydrochloride], 9%; for “o-bis[1-(2-methyl-1,2,3,4-tetrahydroisoquinolyl)]-xylene hydrochloride [Compound 4j]”, 19%.
For the compound `COc1cc2c(cc1OC)C(CCCC1c3cc(OC)c(OC)cc3CCN1C)N(C)CC2` (stereo not shown) [Compound 4d E1, 1,3-bis[1-(6,7-dimethoxy-2-methyl-1,2,3,4-tetrahydroisoquinolyl)]-propane hydrochloride], the “Ki / potential to interact … compared with NML” value is reported as “Ki superior to NML”. Further, under “comparison in words with dequalinium”, the “Ki compared with dequalinium” value is on record as “Ki quite similar to dequalinium”. Further, where the note is “listed as 4d E1, hydrochloride”, the Ki was found to be 0.293 ± 0.022 µM.
Regarding `COc1cc2c(c(OC)c1OC)C(CCCCC1c3c(cc(OC)c(OC)c3OC)CCN1C)N(C)CC2` (stereo not shown) [Compound 4h E2, 1,4-bis[1-(6,7,8-trimethoxy-2-methyl-1,2,3,4-tetrahydroisoquinolyl)]-butane hydrochloride], the Ki (listed as 4h E2, hydrochloride) turned out to be 0.746 ± 0.136 µM.
On to `COc1cc2c(cc1OC)C(CCCCCC1c3cc(OC)c(OC)cc3CCN1C)N(C)CC2.Cl` (stereo not shown) [Compound 4f, 1,5-bis[1-(6,7-dimethoxy-2-methyl-1,2,3,4-tetrahydroisoquinolyl)]-pentane hydrochloride], for which the “% of 125I-apamin displaced at 10 μM” value is 78%.
Same read-out and setting: for “p-bis[1-(2-methyl-1,2,3,4-tetrahydroisoquinolyl)]-xylene hydrochloride [Compound 4l]” the value was 27%; for “m-Bis[1-(2-methyl-1,2,3,4-tetrahydroisoquinolyl)]-xylene hydrochloride [Compound 4k]”, 29%.
With `COc1cc2c(cc1OC)[C@@H](CCC[C@H]1c3cc(OC)c(OC)cc3CCN1C)N(C)CC2` [Compound 4d MESO, 1,3-bis[1-(6,7-dimethoxy-2-methyl-1,2,3,4-tetrahydroisoquinolyl)]-propane hydrochloride], the inhibition constant (Ki) worked out at 1.42 ± 0.116 µM.
On to “m-bis[1-(6,7-dimethoxy-2-methyl-1,2,3,4-tetrahydroisoquinolyl)]-xylene hydrochloride [Compound 4n]”, for which the “% of 125I-apamin displaced at 10 μM” value came to 74%.
The same measure, in the same setting: for “o-bis[1-(6,7,8-trimethoxy-2-methyl-1,2,3,4-tetrahydroisoquinolyl)]-xylene hydrochloride [Compound 4p]” the value was 28%.
Under “listed as 4f MESO, hydrochloride”, `COc1cc2c(cc1OC)C(CCCCCC1c3cc(OC)c(OC)cc3CCN1C)N(C)CC2` (stereo not drawn) [Compound 4f MESO, 1,5-bis[1-(6,7-dimethoxy-2-methyl-1,2,3,4-tetrahydroisoquinolyl)]-pentane hydrochloride] came in with a Ki of 0.731 ± 0.063 µM.
For `CN1CCc2ccccc2C1CCCC1c2ccccc2CCN1C.Cl` (stereo not shown) [Compound 4a, 1,3-bis[1-(2-methyl-1,2,3,4-tetrahydrolisoquinolyl)]-propane hydrochloride], the “% of 125I-apamin displaced at 10 μM” value was found to be 13%.
Still for that read-out and setting: for `COc1cc2c(cc1OC)C(CCCC1c3cc(OC)c(OC)cc3CCN1C)N(C)CC2.Cl` (stereo not shown) [Compound 4d, 1,3-bis[1-(6,7-dimethoxy-2-methyl-1,2,3,4-tetrahydroisoquinolyl)]-propane hydrochloride] the value was 82%; for “m-bis[1-(6,7,8-trimethoxy-2-methyl-1,2,3,4-tetrahydroisoquinolyl)]-xylene hydrochloride [Compound 4q]”, 60%.
The same measure, in the same setting: for `COc1cc2c(c(OC)c1OC)C(CCCC1c3c(cc(OC)c(OC)c3OC)CCN1C)N(C)CC2.Cl` (stereo not shown) [Compound 4g, 1,3-bis[1-(6,7,8-trimethoxy-2-methyl-1,2,3,4-tetrahydroisoquinolyl)]-propane hydrochloride] the value was 70%.
In turn, `COc1cc2c(c(OC)c1OC)C(CCCCC1c3c(cc(OC)c(OC)c3OC)CCN1C)N(C)CC2` (stereo not shown) [Compound 4h E1, 1,4-bis[1-(6,7,8-trimethoxy-2-methyl-1,2,3,4-tetrahydroisoquinolyl)]-butane hydrochloride] registered a Ki (listed as 4h E1, hydrochloride) of 2.21 ± 0.156 µM.
